Data set [1] relates to OVCAR 3 cells. In words: MTS cell viability assay, OVCAR 3 cells. It counts as cell-based, human. As for the experimental part:
(§1) Progesterone and Vitamin D (1,25(OH)2 D3) were tested to determine their effect on cell lines derived from the human ovarian surface epithelium. […] This is shown in FIGS. 1-3 in both ovarian cancer cell lines (OVCAR 5 and OVCAR 3) as well as an immortalized cell cultures derived from the normal human ovarian epithelium (HIO-118V). There is a marked impact on cell viability when the two agents are combined and administered at a dosage that has a marginal impact for each agent given alone.
(Tetrazolium assays rely on reduction of a dye to a coloured formazan, in cell work by metabolically active cells.)

Data set [2] has as its system OVCAR 5 cells. Description: MTS cell viability assay, OVCAR 5 cells. It counts as cell-based, human. The method, then: as §1
In data set [3] the test system is HIO-118V cells. In words: MTS cell viability assay, immortalized human ovarian epithelial cells (HIO-118V). It counts as cell-based. The method, then: as §1
Data set [4] deals with HIO-118V cells. In words: Apoptosis by TUNEL method, HIO-118V cells. It counts as cell-based, human. As to conditions: 45 uM progesterone, 1 uM Vitamin D. The method, then:
In experiments to further understand the effect of progestin and vitamin D on cell viability, experiments were conducted to determine how progestin, vitamin D, and the combination act to induce apoptosis. In the experiment cells were incubated for 28 and 48 hours in the hormonal treatments as indicated and assessed for TUNEL reactivity. In these experiments, Apoptosis (TUNEL) data shown in conditions in which inhibitory effects via MTS were shown. In the example shown in FIG. 4, OVCAR 3 cells undergo a 7-fold increase in apoptosis at 48 hrs when treated with a combination of progesterone and vitamin D. HIO-118V cells show a 1.7-fold increase in apoptosis with 45 uM progesterone alone and a 1.9-fold increase with the combination of 1 uM Vitamin D and 45 uM progesterone.

The test system of data set [5] is Vitamin D 24 hydroxylase (24-OH). Description: Western blot of 24 hydroxylase expression in OVCAR 3 cells. It counts as cell-based, human. As to conditions: 18 hours, 100 nM Vitamin D, 25 μM progesterone, 25 μM Genistein. An excerpt:
Protein was then extracted from the cells and 24-OH expression was the measured via Western Blot, and the degree of expression (band density) measured via a densitometer.
(A western blot detects proteins with antibodies after separation by electrophoresis.)

The conditions of data set [6]: cited from earlier work.
The conditions of data set [7]: 0.5 micrograms per day or 5 micrograms per week; cited from earlier work.
Data set [8] addresses T1, 24 hydroxylase (24-OH) (Homo sapiens, UniProt Q07973).
T1 sequence (Q07973 36-514): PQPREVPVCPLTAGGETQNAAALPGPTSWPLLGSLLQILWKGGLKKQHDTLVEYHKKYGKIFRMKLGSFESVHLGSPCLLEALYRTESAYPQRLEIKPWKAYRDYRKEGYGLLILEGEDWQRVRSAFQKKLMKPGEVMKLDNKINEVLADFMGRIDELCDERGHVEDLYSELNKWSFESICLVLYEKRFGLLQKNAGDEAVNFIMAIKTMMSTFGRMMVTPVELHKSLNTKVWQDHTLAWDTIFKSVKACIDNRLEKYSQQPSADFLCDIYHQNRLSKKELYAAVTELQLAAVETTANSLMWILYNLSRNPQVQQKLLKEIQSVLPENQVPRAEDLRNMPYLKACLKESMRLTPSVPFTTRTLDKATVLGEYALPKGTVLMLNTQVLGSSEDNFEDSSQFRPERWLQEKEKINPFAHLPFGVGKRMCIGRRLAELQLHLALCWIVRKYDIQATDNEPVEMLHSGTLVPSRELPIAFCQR
Conditions: shown by others; cited from earlier work.

Consider `CC(=O)[C@H]1CC[C@H]2[C@@H]3CCC4=CC(=O)CC[C@]4(C)[C@H]3CC[C@]12C` [Progesterone, progesterone], for which the “cell viability (MTS assay)” value in data set [1], in data set [2] and in data set [3] was “inhibit cell viability in a dose response fashion” in each case. Also, the “increase in apoptosis (TUNEL)” value in data set [4] was determined as 1.7 fold. In addition, the “24-OH expression (Western blot, band density)” value in data set [5] is “causes both degradation and decreases production of 24 hydroxylase”.

For `C=C1CC[C@H](O)C/C1=C/C=C1\CCC[C@]2(C)[C@@H]([C@H](C)CCCC(C)(C)O)CC[C@@H]12` [25(OH) D3, 25-hydroxyvitamin D3], in data set [6], the “half life after oral administration” value is “approximately 2 weeks”.

`C=C1/C(=C\C=C2/CCC[C@]3(C)[C@@H]([C@H](C)CCCC(C)(C)O)CC[C@@H]23)C[C@@H](O)C[C@@H]1O` [Vitamin D (1,25(OH)2 D3), 1,25-dihydroxyvitamin D3]: the “cell viability (MTS assay)” value in data set [1], in data set [2] and in data set [3] was “inhibit cell viability in a dose response fashion” throughout. For the same compound, the “half life after oral administration” value in data set [6] was 5 to 8 h. For the same compound, in data set [6] (serum), the serum half-life was 6 to 8 h. The individuals developing hypercalcemia in data set [7] was 1-3%.

Consider “1,25-dihydroxyvitamin D3 [Vitamin D (1,25(OH)2 D3)]”, for which the “24-OH expression (Western blot, band density)” value in data set [5] is on record as “markedly induced”.

`O=c1c(-c2ccc(O)cc2)coc2cc(O)cc(O)c12` [Genistein, genistein]: the “inhibition of 24-OH” value in data set [8] is on record as “inhibit 24-OH”.
